Measurements published in ChEMBL document CHEMBL5465560, “Selectivity Literature for EUbOPEN Chemogenomic Library” (2024).

How the values were obtained:
[1] = molecular target: Serine/threonine-protein kinase Chk2 (Homo sapiens) (UniProt O96017); assay: Selectivity interaction (Kinase panel (literature)) EUB0001199aCl CHEK2; conditions: at 1 µM
Insulin receptor = Insulin receptor (Homo sapiens, UniProt P06213); assay: Selectivity interaction (KinomeScan (DiscoverX)) EUB0000607a INSR; conditions: at 10 µM
[2] = molecular target: T1, Muscarinic acetylcholine receptor M2 (Homo sapiens) (UniProt P08172); assay: Selectivity interaction (Panel of kinases, GPCRs, ion channels and transporters (enzymatic assay)) EUB0000266bCl CHRM2
T1 sequence (whole entry): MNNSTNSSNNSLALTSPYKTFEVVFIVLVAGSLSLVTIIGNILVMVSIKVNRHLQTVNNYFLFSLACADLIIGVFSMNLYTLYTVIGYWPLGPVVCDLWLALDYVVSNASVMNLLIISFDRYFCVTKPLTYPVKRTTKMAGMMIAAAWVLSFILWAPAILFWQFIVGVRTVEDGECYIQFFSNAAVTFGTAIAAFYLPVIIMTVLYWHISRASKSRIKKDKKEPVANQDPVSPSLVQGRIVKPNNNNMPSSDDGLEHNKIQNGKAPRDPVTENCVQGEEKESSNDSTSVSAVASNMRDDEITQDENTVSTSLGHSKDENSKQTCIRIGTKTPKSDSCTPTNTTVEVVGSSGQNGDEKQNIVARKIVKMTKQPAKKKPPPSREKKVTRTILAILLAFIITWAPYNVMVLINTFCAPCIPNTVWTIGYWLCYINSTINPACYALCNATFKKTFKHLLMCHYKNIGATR

[3] = molecular target: Ribosomal protein S6 kinase alpha-3 (Homo sapiens, UniProt P51812); assay: Selectivity interaction (ActivX KiNativ screen (kinase selectivity in THP-1 cell lysates)) EUB0000639a RPS6KA3; assay type: subcellular; conditions: lysate, at 0.04 µM
Ribosomal protein S6 kinase alpha-3, sequence (P51812 whole entry): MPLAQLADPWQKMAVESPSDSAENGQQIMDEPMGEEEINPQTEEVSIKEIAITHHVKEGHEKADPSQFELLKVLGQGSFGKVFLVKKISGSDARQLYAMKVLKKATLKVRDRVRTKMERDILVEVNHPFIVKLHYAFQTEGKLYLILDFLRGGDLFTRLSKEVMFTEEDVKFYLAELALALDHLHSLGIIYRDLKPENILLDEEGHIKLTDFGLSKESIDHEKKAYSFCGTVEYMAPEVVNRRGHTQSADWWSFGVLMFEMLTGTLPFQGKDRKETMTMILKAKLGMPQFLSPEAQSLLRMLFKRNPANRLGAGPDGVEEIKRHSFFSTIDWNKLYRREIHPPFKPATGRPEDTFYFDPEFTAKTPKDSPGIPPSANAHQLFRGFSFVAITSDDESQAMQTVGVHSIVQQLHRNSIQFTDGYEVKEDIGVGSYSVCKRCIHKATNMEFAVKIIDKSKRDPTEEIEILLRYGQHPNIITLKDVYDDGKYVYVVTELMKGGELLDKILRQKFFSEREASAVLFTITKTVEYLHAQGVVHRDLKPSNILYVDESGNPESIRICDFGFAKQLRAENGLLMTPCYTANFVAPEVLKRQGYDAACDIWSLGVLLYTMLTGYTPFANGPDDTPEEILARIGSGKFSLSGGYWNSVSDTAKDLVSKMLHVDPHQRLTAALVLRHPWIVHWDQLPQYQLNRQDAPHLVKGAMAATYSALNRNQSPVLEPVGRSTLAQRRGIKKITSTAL

[4] = molecular target: T2, G protein-coupled receptor kinase 3 (Homo sapiens) (UniProt P35626); assay: Selectivity interaction (Kinase panel (Invitrogen)) EUB0000639a ADRBK2; conditions: at 200 nM
T2 sequence (whole entry): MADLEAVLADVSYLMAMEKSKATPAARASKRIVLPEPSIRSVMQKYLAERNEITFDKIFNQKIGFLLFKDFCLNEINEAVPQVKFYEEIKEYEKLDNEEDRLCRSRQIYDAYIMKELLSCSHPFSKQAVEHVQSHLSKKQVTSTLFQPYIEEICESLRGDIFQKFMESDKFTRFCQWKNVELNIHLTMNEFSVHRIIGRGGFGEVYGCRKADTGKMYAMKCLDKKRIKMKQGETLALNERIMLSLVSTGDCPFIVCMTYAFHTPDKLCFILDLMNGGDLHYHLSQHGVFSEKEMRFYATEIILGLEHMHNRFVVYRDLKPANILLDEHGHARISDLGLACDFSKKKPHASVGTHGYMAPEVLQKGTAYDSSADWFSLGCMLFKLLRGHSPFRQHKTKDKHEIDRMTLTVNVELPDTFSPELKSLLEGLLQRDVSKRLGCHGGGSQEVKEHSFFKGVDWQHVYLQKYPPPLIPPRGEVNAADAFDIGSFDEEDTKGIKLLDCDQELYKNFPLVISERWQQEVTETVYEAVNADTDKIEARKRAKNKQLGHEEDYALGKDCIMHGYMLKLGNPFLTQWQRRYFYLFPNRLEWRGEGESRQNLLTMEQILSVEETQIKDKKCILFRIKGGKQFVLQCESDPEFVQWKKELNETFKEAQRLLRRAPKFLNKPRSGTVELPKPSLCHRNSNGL

[5] = molecular target: Serine/threonine-protein kinase 33 (Homo sapiens) (UniProt Q9BYT3); assay: Selectivity interaction (KinomeScan (DiscoverX)) EUB0000695a STK33; conditions: at 100 nM
Serine/threonine-protein kinase 33 (Homo sapiens), sequence (Q9BYT3 whole entry, looked up): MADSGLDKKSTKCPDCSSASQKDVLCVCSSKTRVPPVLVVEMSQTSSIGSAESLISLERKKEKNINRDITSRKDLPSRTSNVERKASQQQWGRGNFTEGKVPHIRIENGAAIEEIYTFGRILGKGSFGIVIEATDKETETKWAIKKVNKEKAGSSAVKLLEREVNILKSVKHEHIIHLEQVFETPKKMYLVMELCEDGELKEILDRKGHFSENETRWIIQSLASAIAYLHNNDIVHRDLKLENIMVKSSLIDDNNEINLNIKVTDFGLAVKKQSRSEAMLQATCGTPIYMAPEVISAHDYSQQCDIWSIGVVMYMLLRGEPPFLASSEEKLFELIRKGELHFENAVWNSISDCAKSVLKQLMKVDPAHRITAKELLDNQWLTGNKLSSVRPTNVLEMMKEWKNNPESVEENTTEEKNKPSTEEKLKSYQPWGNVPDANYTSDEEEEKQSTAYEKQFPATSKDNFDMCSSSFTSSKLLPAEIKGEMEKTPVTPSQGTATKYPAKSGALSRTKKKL

[6] = molecular target: T3, MAP/microtubule affinity-regulating kinase 4 (Homo sapiens) (UniProt Q96L34); assay: Selectivity interaction (KinomeScan (DiscoverX)) EUB0000045b MARK4
T3 sequence (whole entry): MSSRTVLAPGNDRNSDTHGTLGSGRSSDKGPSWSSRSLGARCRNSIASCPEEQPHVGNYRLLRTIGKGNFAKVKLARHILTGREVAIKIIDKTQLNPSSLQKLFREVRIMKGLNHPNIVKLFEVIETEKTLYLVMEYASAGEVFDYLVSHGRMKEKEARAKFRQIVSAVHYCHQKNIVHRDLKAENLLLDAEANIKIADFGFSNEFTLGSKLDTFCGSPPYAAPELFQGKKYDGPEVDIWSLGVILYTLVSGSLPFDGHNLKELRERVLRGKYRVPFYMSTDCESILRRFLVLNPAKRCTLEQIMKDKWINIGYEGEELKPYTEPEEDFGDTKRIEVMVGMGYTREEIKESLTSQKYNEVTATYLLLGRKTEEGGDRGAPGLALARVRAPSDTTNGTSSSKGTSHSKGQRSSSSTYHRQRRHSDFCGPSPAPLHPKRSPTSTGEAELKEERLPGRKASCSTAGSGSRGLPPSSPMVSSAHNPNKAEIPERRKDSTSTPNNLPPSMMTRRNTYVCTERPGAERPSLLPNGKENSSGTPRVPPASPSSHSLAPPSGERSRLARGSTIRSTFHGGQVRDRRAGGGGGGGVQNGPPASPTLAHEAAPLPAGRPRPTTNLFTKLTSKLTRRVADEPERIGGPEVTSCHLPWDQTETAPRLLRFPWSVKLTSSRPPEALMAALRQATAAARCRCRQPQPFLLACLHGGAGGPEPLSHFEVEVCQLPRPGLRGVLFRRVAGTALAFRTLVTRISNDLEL

[7] = molecular target: Ribosomal protein S6 kinase alpha-1 (Homo sapiens, UniProt Q15418); assay: Selectivity interaction (KinomeScan (DiscoverX)) EUB0001079a RPS6KA1; conditions: at 1 µM
Ribosomal protein S6 kinase alpha-1, sequence (Q15418 whole entry): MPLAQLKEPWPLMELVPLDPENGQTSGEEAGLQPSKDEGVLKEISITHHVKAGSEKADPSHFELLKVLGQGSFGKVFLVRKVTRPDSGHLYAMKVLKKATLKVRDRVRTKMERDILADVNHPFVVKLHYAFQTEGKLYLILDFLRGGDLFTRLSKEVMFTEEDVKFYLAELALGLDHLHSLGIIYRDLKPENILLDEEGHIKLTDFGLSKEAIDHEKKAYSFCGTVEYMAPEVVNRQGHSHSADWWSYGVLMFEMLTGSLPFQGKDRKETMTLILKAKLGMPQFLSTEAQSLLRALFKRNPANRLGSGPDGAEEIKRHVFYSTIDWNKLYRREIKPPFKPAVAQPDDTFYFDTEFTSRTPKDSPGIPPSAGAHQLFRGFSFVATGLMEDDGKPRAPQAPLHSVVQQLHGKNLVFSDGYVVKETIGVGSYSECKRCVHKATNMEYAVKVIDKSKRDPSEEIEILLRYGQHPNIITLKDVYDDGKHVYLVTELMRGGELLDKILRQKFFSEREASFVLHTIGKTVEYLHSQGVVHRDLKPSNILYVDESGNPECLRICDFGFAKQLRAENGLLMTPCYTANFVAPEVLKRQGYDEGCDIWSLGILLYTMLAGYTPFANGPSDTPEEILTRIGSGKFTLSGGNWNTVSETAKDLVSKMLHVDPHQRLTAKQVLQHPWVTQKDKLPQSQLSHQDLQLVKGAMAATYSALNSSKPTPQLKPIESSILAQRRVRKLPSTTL

[8] = molecular target: Ephrin type-A receptor 2 (Homo sapiens) (UniProt P29317); assay: Selectivity interaction (KinomeScan (DiscoverX)) EUB0001079a EPHA2; conditions: at 1 µM
[9] = molecular target: Phosphatidylinositol 4-phosphate 3-kinase C2 domain-containing subunit beta (Homo sapiens) (UniProt O00750); assay: Selectivity interaction (KinomeScan (DiscoverX)) EUB0000229b PIK3C2B; conditions: at 10 µM
Phosphatidylinositol 4-phosphate 3-kinase C2 domain-containing subunit beta (Homo sapiens), sequence (O00750 whole entry, the tested form may be a part): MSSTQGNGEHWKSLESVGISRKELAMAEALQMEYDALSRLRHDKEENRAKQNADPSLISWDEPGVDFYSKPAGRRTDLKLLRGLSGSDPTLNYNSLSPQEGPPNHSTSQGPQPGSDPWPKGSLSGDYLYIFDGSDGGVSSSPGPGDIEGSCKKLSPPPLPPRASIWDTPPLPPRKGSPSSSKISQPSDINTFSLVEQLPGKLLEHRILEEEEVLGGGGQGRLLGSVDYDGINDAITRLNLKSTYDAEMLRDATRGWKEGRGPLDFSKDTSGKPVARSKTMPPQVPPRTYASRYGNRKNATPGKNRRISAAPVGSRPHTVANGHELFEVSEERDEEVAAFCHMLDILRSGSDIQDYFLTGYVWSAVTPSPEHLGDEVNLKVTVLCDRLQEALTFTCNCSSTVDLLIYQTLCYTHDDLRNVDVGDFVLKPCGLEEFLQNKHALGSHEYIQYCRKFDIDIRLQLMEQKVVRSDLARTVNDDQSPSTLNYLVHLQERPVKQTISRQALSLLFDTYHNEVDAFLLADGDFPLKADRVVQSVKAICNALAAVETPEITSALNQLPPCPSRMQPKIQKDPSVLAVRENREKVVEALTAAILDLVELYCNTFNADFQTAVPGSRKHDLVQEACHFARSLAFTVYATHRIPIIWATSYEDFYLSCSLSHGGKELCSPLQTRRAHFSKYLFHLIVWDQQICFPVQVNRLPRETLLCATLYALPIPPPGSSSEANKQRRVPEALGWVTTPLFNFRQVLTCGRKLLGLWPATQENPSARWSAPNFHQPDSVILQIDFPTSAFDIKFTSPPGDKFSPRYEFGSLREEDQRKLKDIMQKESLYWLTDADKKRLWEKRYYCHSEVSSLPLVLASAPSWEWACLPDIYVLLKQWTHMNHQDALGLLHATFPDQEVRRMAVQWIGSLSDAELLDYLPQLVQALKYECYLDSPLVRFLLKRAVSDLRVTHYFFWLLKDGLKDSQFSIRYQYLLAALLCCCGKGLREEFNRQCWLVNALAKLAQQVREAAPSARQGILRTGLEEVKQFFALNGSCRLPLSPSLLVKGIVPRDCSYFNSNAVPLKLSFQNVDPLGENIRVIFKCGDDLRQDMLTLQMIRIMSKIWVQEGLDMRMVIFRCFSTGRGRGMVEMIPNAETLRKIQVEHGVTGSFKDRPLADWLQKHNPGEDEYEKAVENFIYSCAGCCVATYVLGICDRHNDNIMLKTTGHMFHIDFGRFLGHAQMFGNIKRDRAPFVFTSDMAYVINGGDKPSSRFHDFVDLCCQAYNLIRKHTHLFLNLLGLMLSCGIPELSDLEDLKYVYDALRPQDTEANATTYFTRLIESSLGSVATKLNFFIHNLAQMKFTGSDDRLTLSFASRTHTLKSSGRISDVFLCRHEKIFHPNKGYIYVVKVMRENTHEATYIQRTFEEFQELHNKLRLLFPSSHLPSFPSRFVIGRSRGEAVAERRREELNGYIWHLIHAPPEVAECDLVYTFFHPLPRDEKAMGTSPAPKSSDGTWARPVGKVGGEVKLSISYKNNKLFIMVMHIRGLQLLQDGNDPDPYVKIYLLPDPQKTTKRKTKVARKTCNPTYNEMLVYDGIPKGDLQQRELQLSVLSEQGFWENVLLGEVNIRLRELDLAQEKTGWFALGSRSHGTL

[10] = molecular target: Serine/threonine-protein kinase SIK1 (Homo sapiens) (UniProt P57059); assay: Selectivity interaction (KinomeScan (DiscoverX)) EUB0000092b SIK1; conditions: at 10 µM
Serine/threonine-protein kinase SIK1 (Homo sapiens), sequence (P57059 whole entry): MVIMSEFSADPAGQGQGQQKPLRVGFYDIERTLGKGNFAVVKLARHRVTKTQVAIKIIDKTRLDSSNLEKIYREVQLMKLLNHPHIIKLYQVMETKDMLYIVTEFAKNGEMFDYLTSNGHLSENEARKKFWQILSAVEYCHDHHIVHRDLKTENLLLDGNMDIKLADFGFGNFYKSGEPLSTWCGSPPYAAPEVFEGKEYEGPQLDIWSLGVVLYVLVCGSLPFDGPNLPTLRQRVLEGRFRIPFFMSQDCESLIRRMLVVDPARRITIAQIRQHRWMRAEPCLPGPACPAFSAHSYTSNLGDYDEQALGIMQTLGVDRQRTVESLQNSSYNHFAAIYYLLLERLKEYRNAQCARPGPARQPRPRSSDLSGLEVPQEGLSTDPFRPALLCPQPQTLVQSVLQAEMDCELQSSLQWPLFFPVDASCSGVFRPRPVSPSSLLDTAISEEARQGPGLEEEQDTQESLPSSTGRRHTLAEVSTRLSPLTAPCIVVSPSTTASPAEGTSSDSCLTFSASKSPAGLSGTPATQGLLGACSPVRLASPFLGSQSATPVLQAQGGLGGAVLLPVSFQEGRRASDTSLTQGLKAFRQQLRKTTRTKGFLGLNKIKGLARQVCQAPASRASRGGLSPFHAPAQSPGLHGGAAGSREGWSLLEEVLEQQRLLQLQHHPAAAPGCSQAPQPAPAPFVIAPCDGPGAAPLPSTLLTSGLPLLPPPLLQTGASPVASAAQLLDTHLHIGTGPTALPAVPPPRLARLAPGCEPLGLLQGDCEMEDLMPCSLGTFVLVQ

Serine/threonine-protein kinase Chk2 (Homo sapiens), sequence (O96017 whole entry): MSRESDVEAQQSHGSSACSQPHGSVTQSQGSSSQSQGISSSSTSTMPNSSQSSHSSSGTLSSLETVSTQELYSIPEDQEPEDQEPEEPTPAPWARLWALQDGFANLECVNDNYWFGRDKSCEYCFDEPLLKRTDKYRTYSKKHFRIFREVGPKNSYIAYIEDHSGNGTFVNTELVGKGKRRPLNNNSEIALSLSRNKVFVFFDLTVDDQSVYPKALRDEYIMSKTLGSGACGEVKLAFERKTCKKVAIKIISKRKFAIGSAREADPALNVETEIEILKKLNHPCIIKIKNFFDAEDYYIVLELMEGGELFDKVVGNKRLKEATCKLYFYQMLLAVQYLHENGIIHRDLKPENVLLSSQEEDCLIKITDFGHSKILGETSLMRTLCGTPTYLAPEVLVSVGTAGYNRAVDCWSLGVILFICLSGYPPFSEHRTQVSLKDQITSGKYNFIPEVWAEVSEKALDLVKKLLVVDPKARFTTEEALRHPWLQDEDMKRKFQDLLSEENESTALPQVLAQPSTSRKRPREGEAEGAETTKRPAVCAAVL

With `CN1Cc2nccc(-c3cn(C)nc3-c3ccc(F)cc3)c2C1=O` the % of inhibition [1] was 0%.

`CNC(=O)Nc1ccc(-c2nc(N3CC4CCC(C3)O4)c3cnn(C4CCC5(CC4)OCCO5)c3n2)cc1` was tested, and the % of control (Insulin receptor) was 84%.

For `CCn1c(-c2nc3cc(C(=O)N4CCCC(N)C4)ccc3n2C)cc2ccccc21` (configuration not stated), the pXC50 [2] was < 4.8 M.

Compound `CC[C@@H]1[C@H](F)C(=O)N[C@@H]1COc1nccc2cc(C(N)=O)c(OC)cc12` [ZIMLOVISERTIB] has a % of inhibition [3] of 16.1% and a % of inhibition [4] of 2.95%.

In the case of `Cc1cc(F)c(C(=O)Nc2cccc(-c3nncn3C(C)C)n2)cc1-n1cnc(C2CC2)c1`, the % of control [5] is reported as 78%.

`C=CC(=O)Nc1cc(-n2c(=O)ccc3cnc4ccc(-c5ccc(NS(C)(=O)=O)cc5)cc4c32)ccc1C` gave a % of control ([6]; at 1 µM) of 80% and a % of control ([6]; at 10 µM) of 76%.

Work on `Nc1cnc(N2CCc3cc(S(=O)(=O)Nc4c(F)cc(Cl)cc4F)cc(N4CCCC4=O)c32)nc1` [TP-020n] yielded a % of control [7] of 100% and a % of control [8] of 100%.

Work on `COc1cc(N(C)c2ccnc3ccc(C(F)(F)F)cc23)cc(OC)c1OC` yielded a % binding [9] of 100%.

`CCC(=O)N1CCN(c2ccc(-n3c(=O)ccc4cnc5ccc(-c6cnc7ccccc7c6)cc5c43)cc2C(F)(F)F)CC1` was tested, and the % of control [10] was 80%.
